Measurements taken from PubChem BioAssay AID463229 (Broad Institute, 2010).

System: INS-1E rat beta cells, no cytokines, CellTiter-Glo ATP, 48 h
Assay: ATP level change in INS-1E without cytokines, dose response, counter-screen for beta-cell apoptosis protection project, INS-1E rat cells, ATP luminescence, cherry pick (AID 463229)

Structure (SMILES)	AC50 [µM]
CCN(CC)c1ccc(C(=O)N/N=C/c2ccccc2OC(F)F)cc1	15.6
CCCCC(=O)NC(c1ccccc1OC)c1ccc2cccnc2c1O (stereo unspecified)	2.13
COc1ccc(/C=N/NC(=O)c2nc(-c3ccccc3)n(-c3ccccc3)n2)c(O)c1	4.37
CCCN(CCC)c1nc(-c2ccccn2)nc2ccccc12	4.34
COc1ccc2cc(C(=O)N/N=C/c3sc4ccccc4c3O)ccc2c1	7.3
C/C(=N\NC(=O)c1ccccc1Cl)c1ccccn1	5.98
CC(=O)c1ccc(NC(=S)NC(C)c2ccc(Cl)cc2Cl)cc1 (stereo unspecified)	21.1
Cc1ccnc2c1ccc1c(C)ccnc12	3.39
COc1ccccc1C(CCNCc1ccc(N(C)C)cc1)c1ccc(OC(C)C)cc1 (stereo unspecified)	9.78
Cc1cccc(CNc2ncnc3ccc(-c4ccc5c(c4)OCCO5)cc23)c1	7.27
O=C(NC1=C(Nc2ccc(Cl)cc2)C(=O)c2ccccc2C1=O)c1ccccc1	21.8
CCOc1cc(N2CCOCC2)c(OCC)cc1NC(=O)COc1cccc2cccnc12	3.61
O=C(Nc1nc(-c2ccccc2)cs1)c1ccccc1NS(=O)(=O)c1ccc(F)cc1	4.56
Cn1cc(C(=O)N/N=C/c2c(O)ccc3ccccc23)ccc1=O	2.5
C=CC(C)(C)c1c(O)c(CC=C(C)C)c(O)c2c(=O)c3ccc(O)c(O)c3oc12	5.39
C=C[C@H](Cc1ccccc1)N(Cc1ccccc1)S(=O)(=O)N(Cc1ccccc1)[C@H](C=C)Cc1ccccc1	4.79
O=C(N/N=C/c1ccc([N+](=O)[O-])s1)C(O)c1ccccc1 (stereo unspecified)	6.99
CCCC(=O)NC(c1ccccc1)c1ccc2cccnc2c1O (stereo unspecified)	2.85
C/C(=N\NC(=O)c1cc(Br)ccc1O)c1ccccn1	7.82
CCOc1ccc(CN2CCN(Cc3c[nH]c4ccccc34)CC2)cc1	7.75
N#CC1=C(N)Oc2c(ccc3cccnc23)C1c1cccnc1 (stereo unspecified)	7.5
Cc1cc(N/N=C/c2cccc(Cl)c2)nc(-n2nc(C)cc2C)n1	16.4
Cc1ccc(C(=O)NC2CCCc3c2cnn3-c2ccc(F)cc2F)cn1 (stereo unspecified)	7.07
c1ccc(C(c2ccccc2)N2CCN(c3nc4ccccc4n4cnnc34)CC2)cc1	4.73
COCC1CCCCN1C(=O)c1cc(COc2ccc3ncccc3c2)on1 (stereo unspecified)	7.39
O=C1C=C(c2cccs2)C[C@H](c2ccccc2)[C@H]1n1nnc([N+](=O)[O-])n1	12.8

Structure (SMILES)	AC50 [µM]
COc1cc(OC)c(NC2=CC(=O)C(=O)c3ccccc32)cc1Cl	8.07
COc1ccc(CCNC(=O)c2cc3c(=O)n4cccc(C)c4nc3n(Cc3ccco3)c2=N)cc1OC	9.18
Cc1ccccc1C(=O)N1CCN(c2ccc(NC(=O)c3cccnc3)cc2)CC1	11.7
C=C1C(O)[C@@H]2O[C@]3(CC[C@H](/C=C/C(C)[C@@H]4CC(C)=CC5(O[C@H](C[C@@](C)(O)CO)CCC5O)O4)O3)CC[C@H]2O[C@@H]1C(O)CC(C)[C@H]1OC2(CCCCO2)CCC1C (stereo partly specified)	10.7
Cc1ccc(-c2nc(NC(=O)c3nn(C)cc3[N+](=O)[O-])sc2C)cc1	5.47
COc1ccc(S(=O)(=O)Nc2ccc3oc(C)c(C(C)=O)c3c2)cc1	12.3
COc1ccc2nc(/C(C#N)=C\c3ccc(Oc4ccc([N+](=O)[O-])cn4)cc3)[nH]c2c1	6.77
Cc1ccc(NS(=O)(=O)c2cc([N+](=O)[O-])ccc2N/N=C/c2sc(N3CCOCC3)nc2-c2ccccc2)c(C)c1	11.9
CCN(CC)S(=O)(=O)c1cc([N+](=O)[O-])ccc1NNC(=O)Nc1ccc(Cl)c(Cl)c1	6.54
COc1ccc(CC(=O)Nc2cccc(-c3nnc(-c4cccc(C)c4)o3)c2)cc1OC	3.46
COc1ccc(OC)c2sc(N(CCCN(C)C)C(=O)c3ccc(S(=O)(=O)N4CCc5ccccc5C4)cc3)nc12	2.23
Oc1ccc(/C=N/Nc2ncc(Br)cn2)c(O)c1	3.83
Cc1cccc(NC(=O)Nc2cccc(Oc3c(F)c(F)c(F)c(F)c3F)c2)c1	6.96
Cc1cc(C(=O)N/N=C/c2cc(Br)cc(Br)c2OC(=O)c2cccc(F)c2)n[nH]1	4.79
c1ccc(-c2cccc(-c3ccccn3)n2)nc1	1.24
O=C(c1cc2sccc2n1Cc1ccccc1)N1CCN(c2nc3ccccc3s2)CC1	5.51
COc1ccc(C)cc1Nc1n[n+](-c2ccccc2)c(-c2ccc(N(C)C)cc2)s1	2.9
O=C(N/N=C/c1cc(Cl)ccc1O)c1ccc(Br)cc1	4.07
CN(C)C(=O)c1ccc(NC(=O)c2cccnc2)cc1	7.27
O=C(c1cc(COc2cccc3cnccc23)on1)N1CCCC(CCCO)C1 (stereo unspecified)	2.04
Cc1oc2c(c1C(=O)N1CCC(C)CC1)C(=O)c1ccccc1C2=O	10.8
O=C1C(=O)c2ccccc2-c2ccccc21	1.01
CCN1C/C(=C/c2ccc(OC)c(O)c2)C(=O)/C(=C/c2ccc(OC)c(O)c2)C1	4.92
CN(C)S(=O)(=O)c1cccc(CSCc2cccc(S(=O)(=O)N(C)C)c2)c1	7.78
CCSc1ccc(NC(=O)c2cccnc2)cc1	11.1
C#CCn1c(=NC(=O)c2ccc(S(=O)(=O)N3CCc4ccccc4C3)cc2)sc2cc(S(N)(=O)=O)ccc21	3.64

Structure (SMILES)	AC50 [µM]
O=C(OCCOc1cccc(Cl)c1)c1cc(S(=O)(=O)N2CCCCC2)ccc1N1CCOCC1	7.78
COc1cccc(/C=N/Nc2ncc(C(F)(F)F)cc2Cl)c1O	4.26
COc1ccccc1/C=C/CN1CCC(n2nccc2NC(=O)CCc2ccccc2)CC1	8.85
Cc1c2ccncc2c(C)c2c1[nH]c1ccccc12	5.21
CN(C)c1cc[n+](Cc2c(Cl)cccc2Cl)cc1	6.3
CN(C)CCCNS(=O)(=O)c1ccc(NC2CCCCCC2)c([N+](=O)[O-])c1	7.27
CCN(CC)C(=O)c1ccc(S(=O)(=O)N2CCC(c3nc4ccccc4s3)CC2)cc1	7.7
CN1CCN(C(c2ccc(C(F)(F)F)cc2)c2ccc3cccnc3c2O)CC1 (stereo unspecified)	4.56
NC(=O)c1c(-c2ccc(Cl)cc2Cl)csc1NC(=O)Cc1ccccc1	4.08
Cc1ccc(NS(=O)(=O)c2ccc(NC(=O)CN(c3cc([N+](=O)[O-])ccc3C)S(C)(=O)=O)cc2)c(C)c1	1.86
Cc1ccc(-c2nc(N/N=C/c3cccnc3)c3ccccc3n2)cc1	9.02
COc1ccc(-n2c(-c3ccc(Cl)cc3)c[n+]3c2CCc2ccccc2-3)cc1	1.78
Cc1cccc(Oc2cc(NC(=O)c3ccccc3)cc([N+](=O)[O-])c2)c1	7.84
C=C1C(=O)O[C@@H]2C[C@@H](C)[C@@H]3C=CC(=O)[C@@]3(C)[C@@H](O)[C@H]12	2.02
CCCOCc1ccc(O)c2ncccc12	7.79
Cc1ccc(OCCN2CCN(c3ncnc4sc(C)c(C)c34)CC2)cc1	4.03
O=C(Nc1ccc2nc3n(c(=O)c2c1)CCCCC3)c1c(F)ccc([N+](=O)[O-])c1F	6.65
Cc1ccc(C)c(NC(=S)NC(NC(=O)Cc2cccc3ccccc23)C(Cl)(Cl)Cl)c1 (stereo unspecified)	5.67
COc1ccc(CC2(CO)CCN(CC3=Cc4cc(Cl)ccc4OC3)CC2)cc1	4.18
Cc1ccc2nc(-c3ccccn3)c(Nc3ccccc3C)n2c1	9.99
COc1c(CC=C(C)C)cc(C2CC(=O)c3c(O)cc(O)cc3O2)cc1CC=C(C)C (stereo unspecified)	4.05
Cc1sc2ncnc(NCc3cccs3)c2c1C	6.4
O=C(N/N=C/c1cc(Cl)ccc1O)C(=O)Nc1ccccc1OC(F)(F)C(F)F	8.81
O=C(Nc1nc(-c2ccccn2)cs1)c1ccc(Cl)s1	4.38
